Assay results from patent publication US20240409585A1, “MACROCYCLIC IMMUNOMODULATORS” (priority 2021, published 2024).
Numbered stars: 1 amine (or outer) side, 2 acyl side, 3 side chain; on linkers, the order of the positions; unused ones are H or OH. Bridge positions count the residues as written; N and C are the ends. Square brackets hold non-standard residues; d marks the D form. Peptide text beside a SMILES is read from it. * marks the point of attachment. ξ: configuration not given here. X10 = O=C(CCc1c[nH]cn1)NCc1cccc(C[C@H](N[*:1])C(=O)[*:2])c1; X13 = O=C(CCc1ccccc1)NCc1cccc(C[C@H](N[*:1])C(=O)[*:2])c1; Phe(3-OCH2COOH) = N[C@@H](Cc1cccc(OCC(=O)O)c1)C(=O)O; X3 = CC(=O)NCc1cccc(C[C@H](N[*:1])C(=O)[*:2])c1; Ala(morpholin-4-yl) = N[C@@H](CN1CCOCC1)C(=O)O; Phe(3-COOH) = N[C@@H](Cc1cccc(C(=O)O)c1)C(=O)O; Phe(4-COOH) = N[C@@H](Cc1ccc(C(=O)O)cc1)C(=O)O; Bpa = N[C@@H](Cc1ccc(C(=O)c2ccccc2)cc1)C(=O)O; X4 = O=C([C@H](Cc1ccc2cc[nH]c2c1)N[*:1])[*:2]; Bip = N[C@@H](Cc1ccc(-c2ccccc2)cc1)C(=O)O; Phe(3-CN) = N#Cc1cccc(C[C@H](N)C(=O)O)c1; Phe(3-I) = N[C@@H](Cc1cccc(I)c1)C(=O)O; Phe(3-Me) = Cc1cccc(C[C@H](N)C(=O)O)c1; 2Pal = N[C@@H](Cc1ccccn1)C(=O)O; 3Pal = N[C@@H](Cc1cccnc1)C(=O)O; Cha = N[C@@H](CC1CCCCC1)C(=O)O; Carboxymethyl = O=C(O)C*; NMeA = CN[C@@H](C)C(=O)O; Orn = NCCC[C@H](N)C(=O)O; Dab = NCC[C@H](N)C(=O)O; ξC = NC(CS)C(=O)O

Experiments:
[1] = target: T1, PE-labeled human PD-L1-Ig binding to Jurkat cell line over-expressing human PD-1 (Jurkat-PD-1) (Homo sapiens, UniProt Q15116); test: Jurkat-PD-1 Cell Binding High-Content Screening Assay (CBA): Method 1; conditions: Jurkat-PD-1 cells, PE-labeled PD-L1-Ig; μM; read-out: CBA Method 1 μM
T1 construct: expressed in transfected cells; host or cells: Jurkat
T1 sequence (Q15116 25-288): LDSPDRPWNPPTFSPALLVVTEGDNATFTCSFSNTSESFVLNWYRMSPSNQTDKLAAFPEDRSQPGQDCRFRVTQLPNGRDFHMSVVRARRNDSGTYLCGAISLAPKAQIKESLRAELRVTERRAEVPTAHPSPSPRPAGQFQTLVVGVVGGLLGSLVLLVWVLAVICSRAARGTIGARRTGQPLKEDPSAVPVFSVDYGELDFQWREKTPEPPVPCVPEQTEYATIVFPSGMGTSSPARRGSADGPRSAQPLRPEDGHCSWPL

[2] = target: T1, PE-labeled human PD-L1-Ig binding to Jurkat cell line over-expressing human PD-1 (Jurkat-PD-1); test: Jurkat-PD-1 Cell Binding High-Content Screening Assay (CBA): Method 2 (presence and absence of tween-20); conditions: Jurkat-PD-1 cells, PE-labeled PD-L1-Ig 20 nM; presence or absence of tween-20 not given; head μM; read-out: CBA Method 2 μM
Method: Jurkat-PD-1 Cell Binding High-Content Screening Assay (CBA): Method 2
Phycoerythrin (PE) was covalently linked to the Ig epitope tag of human PD-L1-Ig and fluorescently labeled PD-L1-Ig was used for binding studies with a Jurkat cell line over-expressing human PD-1 (Jurkat-PD-1). […] 100 nl of compound was added to cells followed by incubation at 37° C. for 2 hours. To interrogate potential issues with compound aggregation, compounds were tested in the presence and absence of tween-20 detergent. […] Then, 5 μl of PE-labeled PD-L1-Ig (20 nM final), diluted in DMEM supplemented with 10% fetal calf serum. […] Data was collected and processed using a Cell Insight NXT High Content Imager and associated software.

Compound	IC50 [1] [µM]	IC50 [2] [µM]
Cc1cccc(C[C@@H]2NC(=O)[C@H](CC(=O)O)NC(=O)[C@H](Cc3ccc(OCC(=O)O)cc3)NC(=O)[C@H](CN3CCOCC3)NC(=O)CSC[C@@H](C(=O)N[C@@H](CCN)C(N)=O)NC(=O)[C@H](CCCN)NC(=O)[C@H](C(C)C)NC(=O)[C@H](CC3CCCCC3)NC(=O)[C@H](CCN)NC(=O)[C@@H](CC(C)C)NC(=O)[C@H](C)N(C)C(=O)[C@H](CCC(N)=O)NC(=O)[C@H](Cc3ccc(-c4ccccc4)cc3)NC(=O)[C@H](Cc3cccc(C#N)c3)NC2=O)c1 [Example 5030] ({CH2CO}-[Ala(morpholin-4-yl)]Y(Carboxymethyl)D[Phe(3-Me)][Phe(3-CN)][Bip]Q[NMeA][dL][Dab][Cha]V[Orn]C[Dab]-NH2; thioether N-14)	0.0047	0.0043
Cc1cccc(C[C@@H]2NC(=O)[C@H](CC(=O)O)NC(=O)[C@H](Cc3ccc(OCC(=O)O)cc3)NC(=O)[C@H](CN3CCOCC3)NC(=O)CSCC(C(=O)N[C@@H](CCN)C(N)=O)NC(=O)[C@H](CCCN)NC(=O)[C@H](C(C)C)NC(=O)[C@H](CC3CCCCC3)NC(=O)[C@H](CCN)NC(=O)[C@@H](CC(C)C)NC(=O)[C@H](C)N(C)C(=O)[C@H](CCC(N)=O)NC(=O)[C@H](Cc3ccc(-c4ccccc4)cc3)NC(=O)[C@H](Cc3ccc(C(=O)c4ccccc4)cc3)NC2=O)c1 (stereo partly drawn) [Example 5031] ({CH2CO}-[Ala(morpholin-4-yl)]Y(Carboxymethyl)D[Phe(3-Me)][Bpa][Bip]Q[NMeA][dL][Dab][Cha]V[Orn][ξC][Dab]-NH2; thioether N-14)	0.0087	0.0068
CC(=O)NCc1cccc(C[C@@H]2NC(=O)CSC[C@@H](C(=O)N[C@@H](CCN)C(N)=O)NC(=O)[C@H](CCCN)NC(=O)[C@H](C(C)C)NC(=O)[C@H](CC3CCCCC3)NC(=O)[C@H](CCN)NC(=O)[C@@H](CC(C)C)NC(=O)[C@H](C)N(C)C(=O)[C@H](CCC(N)=O)NC(=O)[C@H](Cc3ccc(-c4ccccc4)cc3)NC(=O)[C@H](Cc3ccc(C(=O)O)cc3)NC(=O)[C@H](Cc3cccc(C)c3)NC(=O)[C@H](CC(=O)O)NC(=O)[C@H](Cc3ccc(OCC(=O)O)cc3)NC2=O)c1 [Example 5033] ({CH2CO}-[X3]Y(Carboxymethyl)D[Phe(3-Me)][Phe(4-COOH)][Bip]Q[NMeA][dL][Dab][Cha]V[Orn]C[Dab]-NH2; thioether N-14)	0.0032	0.0033
Cc1cccc(C[C@@H]2NC(=O)[C@H](CC(=O)O)NC(=O)[C@H](Cc3ccc(OCC(=O)O)cc3)NC(=O)[C@H](Cc3cccc(CNC(=O)CCc4ccccc4)c3)NC(=O)CSC[C@@H](C(=O)N[C@@H](CCN)C(N)=O)NC(=O)[C@H](CCCN)NC(=O)[C@H](C(C)C)NC(=O)[C@H](CC3CCCCC3)NC(=O)[C@H](CCN)NC(=O)[C@@H](CC(C)C)NC(=O)[C@H](C)N(C)C(=O)[C@H](CCC(N)=O)NC(=O)[C@H](Cc3ccc(-c4ccccc4)cc3)NC(=O)[C@H](Cc3ccc(C(=O)O)cc3)NC2=O)c1 [Example 5034] ({CH2CO}-[X13]Y(Carboxymethyl)D[Phe(3-Me)][Phe(4-COOH)][Bip]Q[NMeA][dL][Dab][Cha]V[Orn]C[Dab]-NH2; thioether N-14)	0.0051	0.0031
Cc1cccc(C[C@@H]2NC(=O)[C@H](CC(=O)O)NC(=O)[C@H](Cc3ccc(OCC(=O)O)cc3)NC(=O)[C@H](Cc3cccc(CNC(=O)CCc4c[nH]cn4)c3)NC(=O)CSC[C@@H](C(=O)N[C@@H](CCN)C(N)=O)NC(=O)[C@H](CCCN)NC(=O)[C@H](C(C)C)NC(=O)[C@H](CC3CCCCC3)NC(=O)[C@H](CCN)NC(=O)[C@@H](CC(C)C)NC(=O)[C@H](C)N(C)C(=O)[C@H](CCC(N)=O)NC(=O)[C@H](Cc3ccc(-c4ccccc4)cc3)NC(=O)[C@H](Cc3ccc(C(=O)O)cc3)NC2=O)c1 [Example 5035] ({CH2CO}-[X10]Y(Carboxymethyl)D[Phe(3-Me)][Phe(4-COOH)][Bip]Q[NMeA][dL][Dab][Cha]V[Orn]C[Dab]-NH2; thioether N-14)	0.0042	0.0035
Cc1cccc(C[C@@H]2NC(=O)[C@H](CC(=O)O)NC(=O)[C@H](Cc3ccc(OCC(=O)O)cc3)NC(=O)[C@H](Cc3cccc(I)c3)NC(=O)CSC[C@@H](C(=O)N[C@@H](CCN)C(N)=O)NC(=O)[C@H](CCCN)NC(=O)[C@H](C(C)C)NC(=O)[C@H](CC3CCCCC3)NC(=O)[C@H](CCN)NC(=O)[C@@H](CC(C)C)NC(=O)[C@H](C)N(C)C(=O)[C@H](CCC(N)=O)NC(=O)[C@H](Cc3ccc(-c4ccccc4)cc3)NC(=O)[C@H](Cc3ccc(C(=O)O)cc3)NC2=O)c1 [Example 5036] ({CH2CO}-[Phe(3-I)]Y(Carboxymethyl)D[Phe(3-Me)][Phe(4-COOH)][Bip]Q[NMeA][dL][Dab][Cha]V[Orn]C[Dab]-NH2; thioether N-14)	0.0045	0.0031
Cc1cccc(C[C@@H]2NC(=O)[C@H](CC(=O)O)NC(=O)[C@H](Cc3ccc(OCC(=O)O)cc3)NC(=O)[C@H](CN3CCOCC3)NC(=O)CSC[C@@H](C(=O)N[C@@H](CCN)C(N)=O)NC(=O)[C@H](CCCN)NC(=O)[C@H](C(C)C)NC(=O)[C@H](CC3CCCCC3)NC(=O)[C@H](CCN)NC(=O)[C@@H](CC(C)C)NC(=O)[C@H](C)N(C)C(=O)[C@H](CCC(N)=O)NC(=O)[C@H](Cc3ccc(-c4ccccc4)cc3)NC(=O)[C@H](Cc3ccc4cc[nH]c4c3)NC2=O)c1 [Example 5037] ({CH2CO}-[Ala(morpholin-4-yl)]Y(Carboxymethyl)D[Phe(3-Me)][X4][Bip]Q[NMeA][dL][Dab][Cha]V[Orn]C[Dab]-NH2; thioether N-14)	0.0138	0.0304
Cc1cccc(C[C@@H]2NC(=O)[C@H](CC(=O)O)NC(=O)[C@H](Cc3ccc(OCC(=O)O)cc3)NC(=O)[C@H](CN3CCOCC3)NC(=O)CSC[C@@H](C(=O)N[C@@H](CCN)C(N)=O)NC(=O)[C@H](CCCN)NC(=O)[C@H](C(C)C)NC(=O)[C@H](Cc3cccnc3)NC(=O)[C@H](CCN)NC(=O)[C@@H](CC(C)C)NC(=O)[C@H](C)N(C)C(=O)[C@H](CCC(N)=O)NC(=O)[C@H](Cc3ccc(-c4ccccc4)cc3)NC(=O)[C@H](Cc3ccc(C(=O)O)cc3)NC2=O)c1 [Example 5039] ({CH2CO}-[Ala(morpholin-4-yl)]Y(Carboxymethyl)D[Phe(3-Me)][Phe(4-COOH)][Bip]Q[NMeA][dL][Dab][3Pal]V[Orn]C[Dab]-NH2; thioether N-14)	0.0729	0.0607

The remaining lines, values ahead:

IC50 [1] [µM]	IC50 [2] [µM]	Compound
0.31	0.56	CC(C)C[C@@H]1NC(=O)[C@H](Cc2c[nH]c3ccccc23)NC(=O)[C@H](CC(N)=O)NC(=O)[C@H](Cc2ccc(O)cc2)NC(=O)[C@H](Cc2ccccc2)NC(=O)CSC[C@@H](C(=O)NCC(N)=O)NC(=O)[C@H](CO)NC(=O)[C@H](C(C)C)NC(=O)[C@H](CC(C)C)NC(=O)[C@H](CC(N)=O)NC(=O)[C@@H](CC(C)C)NC(=O)[C@H](C)N(C)C(=O)[C@H](C(C)C)NC(=O)[C@H](Cc2ccc(-c3ccccc3)cc2)NC1=O [Example 5025] ({CH2CO}-FYNWL[Bip]V[NMeA][dL]NLVSCG-NH2; thioether N-14)
0.12	0.12	CC(C)C[C@@H]1NC(=O)[C@H](Cc2c[nH]c3ccccc23)NC(=O)[C@H](CC(N)=O)NC(=O)[C@H](Cc2cccc(C(=O)O)c2)NC(=O)[C@H](Cc2ccccc2)NC(=O)CSC[C@@H](C(=O)NCC(N)=O)NC(=O)[C@H](CO)NC(=O)[C@H](C(C)C)NC(=O)[C@H](CC(C)C)NC(=O)[C@H](CC(N)=O)NC(=O)[C@@H](CC(C)C)NC(=O)[C@H](C)N(C)C(=O)[C@H](C(C)C)NC(=O)[C@H](Cc2ccc(-c3ccccc3)cc2)NC1=O [Example 5026] ({CH2CO}-F[Phe(3-COOH)]NWL[Bip]V[NMeA][dL]NLVSCG-NH2; thioether N-14)
0.0987	0.108	CC(C)C[C@@H]1NC(=O)[C@H](Cc2c[nH]c3ccccc23)NC(=O)[C@H](CC(N)=O)NC(=O)[C@H](Cc2cccc(OCC(=O)O)c2)NC(=O)[C@H](Cc2ccccc2)NC(=O)CSC[C@@H](C(=O)NCC(N)=O)NC(=O)[C@H](CO)NC(=O)[C@H](C(C)C)NC(=O)[C@H](CC(C)C)NC(=O)[C@H](CC(N)=O)NC(=O)[C@@H](CC(C)C)NC(=O)[C@H](C)N(C)C(=O)[C@H](C(C)C)NC(=O)[C@H](Cc2ccc(-c3ccccc3)cc2)NC1=O [Example 5032] ({CH2CO}-F[Phe(3-OCH2COOH)]NWL[Bip]V[NMeA][dL]NLVSCG-NH2; thioether N-14)
0.0425	0.0171	Cc1cccc(C[C@@H]2NC(=O)[C@H](CC(=O)O)NC(=O)[C@H](Cc3ccc(OCC(=O)O)cc3)NC(=O)[C@H](CN3CCOCC3)NC(=O)CSC[C@@H](C(=O)N[C@@H](CCN)C(N)=O)NC(=O)[C@H](CCCN)NC(=O)[C@H](C(C)C)NC(=O)[C@H](Cc3ccccn3)NC(=O)[C@H](CCN)NC(=O)[C@@H](CC(C)C)NC(=O)[C@H](C)N(C)C(=O)[C@H](CCC(N)=O)NC(=O)[C@H](Cc3ccc(-c4ccccc4)cc3)NC(=O)[C@H](Cc3ccc(C(=O)O)cc3)NC2=O)c1 [Example 5038] ({CH2CO}-[Ala(morpholin-4-yl)]Y(Carboxymethyl)D[Phe(3-Me)][Phe(4-COOH)][Bip]Q[NMeA][dL][Dab][2Pal]V[Orn]C[Dab]-NH2; thioether N-14)
